Laboratory results taken from patent publication US20070160553A1, “Use of agents for the cosmetic treatment of keratin-containing material” (WELLA AG, priority 2004, published 2007).
Several values for one entry are separate records, joined by “and”; a condition that tells them apart may be missing. Equal entries are not always repeated. Where two headings read alike, the source gives them in different places.

Columns and labels:
[1] = bleached hair, cycles until 63.2% of hairs are broken
Description: The measurements of rubbing resistance make it possible to draw conclusions concerning the resistance of the hair to mechanical stresses. The measuring principle consists of exposing individual hair fibers to repeated (small) mechanical stresses and measuring the number of repeating cycles needed to make the material break. A higher number of stressing cycles indicates a higher resistance of the hair to mechanical stresses. The evaluation of the hair resistance test results, which initially consists only of determining the number of stressing cycles to hair breakage for each individual hair, is carried out by Weibull's reliability analysis. According to Weibull, the breakage frequency (here: hair breakage) can be described by the following equation: H=1−exp[−(x/Θ)]b linearized: lnln[1/(1−H)]=b(ln x)−b(ln Θ) H=breakage frequency (=cumulated hair breakage), normalized to 1 (1=100%) X=lifetime variable (=cycles to hair breakage) Θ=characteristic lifetime (number of cycles until 63.2% of the hairs are broken) b=shape parameter, slope of the fitted straight lines.
For the Weibull analysis, therefore, that data must be plotted as lnln(1/1−H) against Inx. After linear regression, the axial segment indicates b(ln Θ) and the slope gives b. The characteristic lifetime E is then obtained from exp[−(axial segment/slope)]. The longer the characteristic lifetime, the higher is the resistance of the hair to breakage.
Another important parameter for determining the condition of the hair or the degree of damage to the hair is the determination of the rubbing resistance as a measure of the mechanical weakening of the hair (see legend for FIG. 1) [sic].
To this end, after previous standardized bleaching, strands of human hair (of Caucasian origin), were subjected to the strongly weakening conditions of a permanent wave procedure or a hair tinting by standardized methods. Then, the ends of 20 individual hairs per sample, namely of 10 individual hairs per strand, were fastened to holders, and the rubbing resistance was measured.

[2] = shampoo as in Example 6, 2.0 wt. % active; 20 hairs; control without active 12.0
Procedure: The determination of the tear strength of hair, which is an indicator of the structural integrity of the hair cortex and thus a measure of the degree of damage, was carried out by tensile-elongation measurements common for these purposes. From each hair strand we selected 20 individual hairs and determined the individual hair diameters with a computer-controlled laser micrometer. Then, by means of a tensile-elongation tester (MTT 160/600 Series Miniature Tensile Tester, Serial No. 600.95.05.001, supplied by DIA-STRON Ltd, England), the force needed to tear the individual hairs was measured.
From these individual tear strength measurements which because of the different hair diameters gave different values, the bundle tensile strength (BTS) was calculated by taking 0.08 mm for a hair diameter (average diameter). By including the hair density, finally, the conversion into the unit of bundle tensile strength (cN/tex) was performed. The higher the numerical value of the bundle tensile strength, the lower is the hair damage.

[3] = active present in permanent wave products, compared to otherwise identically treated hair
Description: Tear strength is viewed as a parameter for determining damage to hair; the higher the force needed to tear a hair, the better is the hair quality.

[4] = Conventional hair-care effects (combability, luster, volume, friction); settings: in appropriate formulations
Description: This is in stark contrast to the known hair-care actions of other representatives of this class of substances, for example of betaine (trimethylammonioacetate) or carnitine [3-hydroxy-4-(trimethylammonio)butyric acid]. […] Other hair-care criteria such as an increase in hair volume or an improvement in the hair fullness or hair styling were also not observed.
Tests for determining the triboelectric properties have also shown that depending on the use concentration of compounds of formulas (I) and (II) the electrostatic chargability of hair was reduced. […] This is particularly surprising considering that in no comparative test did the formulation containing as active ingredient a compound of formula (I) and (II) show a reduction in the mechanical coefficient of friction. […] The protective function therefore is independent of the typical hair-care criteria and consists only of attenuating the effects of hair-damaging factors.

## C[n+]1cccc(C(=O)[O-])c1.Cl [1-Methylpyridinium-3-carboxylate hydrochloride]
Preparation containing 1% as the hydrochloride
  antistatic effect: statistically probable antistatic effect

## C[n+]1cccc(C(=O)[O-])c1 [1-methylpyridinium-3-carboxylate]
[1]; hair tinting agent + 0.1% active
  Characteristic Lifetime: increase
[1]; hair tinting agent + 0.1% active, listed as 1-methylpyridium-3-carboxylate
  Characteristic Lifetime: 568
[1]; hair tinting agent + 1% active
  Characteristic Lifetime: even higher than those shown by the chemically untreated (unbleached, natural) hair
[1]; hair tinting agent + 1% active, listed as 1-methyl-pyridinium-3-carboxylate
  Characteristic Lifetime: further increase
[1]; hair tinting agent + 1% active, listed as 1-methylpyridium-3-carboxytate
  Characteristic Lifetime: 643
[1]; permanent wave formulation with 0.5% active, listed as 1-methylpyridium-3-carboxylate
  Characteristic Lifetime: 546
[2]
  bundle tensile strength (BTS): 12.64±0.4 cN/tex and 12.64 cN/tex
[3]
  tear strength: significant increase
Bleached strands, hair-treatment preparation with 0.5% active, 5 minutes, vs untreated control
  hair strand volume after combing (electrostatic charge): obviously smaller volume than the untreated control hairs

## C[N+](C)(C)CC(=O)[O-] [betaine, trimethylammonioacetate]
[4]
  combability: pronounced improvement
  luster of the hair: definitely improved
